Assay: Biodistribution: radioactivity in rat brain tissue after intravenous injection
Format: in vivo
Conditions: for signal relative to cerebellum in hippocampus and cortex: IV injection; for radioactivity in blood / radioactivity in cerebellum / radioactivity in entorhinal cortex / radioactivity in hippocampus / radioactivity in hypothalamus / radioactivity in inferior colliculi / radioactivity in occipital cortex / radioactivity in olfactory tubercles / radioactivity in plasma (shown for comparison) / radioactivity in pons with medulla / radioactivity in prefrontal cortex / radioactivity in somatosensory cortex / radioactivity in striata / radioactivity in superior colliculi / radioactivity in thalamus: intravenous injection
Description: N-(2-Chloro-5-(2-[^18F]fluoro-ethylthio))-phenyl-N′-(3-methylthio)-phenyl-N′-methylguanidine was prepared according to Example 4 (synthesis formulation ˜3% ethanol in 0.9% w/v saline solution) with a radiochemical purity of ˜99% and, at time of injection, the specific activity ranged from 4-16 GBq/nmol^−1. Biodistribution and blood data were from 11 adult male Sprague-Dawley rats (body weight range, 269 to 329 g; mean±S.E.=300±18 g). N-(2-Chloro-5-(2-[^18F]fluoro-ethylthio))-phenyl-N′-(3-methylthio)-phenyl-N′-methylguanidine was injected directly into the tail vein of each rat whilst under isoflurane anaesthesia. Each animal was then allowed to recover from anaesthesia. At designated times after injection, rats were sacrificed by cervical dislocation under anaesthesia and brain and body tissues were rapidly sampled.
The data were acquired using two syntheses. Rats were given an average of 86 MBq (85.3 MBq for first experimental day and 87.3 MBq for the second experimental day), in a volume of 0.20 ml (synthesis formulation ˜3% alcohol), via direct intravenous injection through the tail vein. The mass of co-injected N-(2-Chloro-5-(2-[^18F]fluoro-ethylthio))-phenyl-N′-(3-methylthio)-phenyl-N′-methylguanidine ranged from 0.7-2.9 nmol.kg^−1. Details of the methodology, together with processing and counting of the samples can be found in Hume et al., Nucl. Med. Biol. (1991) 18: 339-351. Data were normalised for injected radioactivity and body weight, giving: ‘uptake units’=(cpm.g^−1 wet weight tissue)·(injected cpm.g^−1 body weight)^−1 Results
Radioactivity concentration data are additionally collated in Tables 1 (peripheral tissue) and 2 (brain). As metabolite studies were not carried out, the proportion of the total radioactivity reflecting label associated with parent N-(2-Chloro-5-(2-[^18F]fluoro-ethylthio))-phenyl-N′-(3-methylthio)-phenyl-N′-methylguanidine is not known. Note, Blood and plasma samples were collected post-mortem from the heart ventricle.

CSc1cccc(N(C)C(=N)Nc2cc(SCC[18F])ccc2Cl)c1 [N-(2-Chloro-5-(2-[^18F]fluoro-ethylthio))-phenyl-N′-(3-methylthio)-phenyl-N′-methylguanidine]
initial uptake in all brain tissues (2 minutes after IV injection): ~4 uptake units
activity in all brain tissues (90 minutes after radioligand injection): ~0.4 uptake units
signal relative to cerebellum in hippocampus and cortex (by 90 minutes): 1
signal relative to cerebellum in hippocampus and cortex (reached over the first 40 minutes): 1.3
signal relative to cerebellum in hippocampus and cortex (start of the first 40 minutes): ~0.8
rat brain uptake of radioactivity (earliest sample time (2 min) after IV injection): high uptake of radioactivity
radioactivity in blood (2 min, n = 1): 0.288 uptake units
radioactivity in cerebellum (2 min, n = 1): 4.204 uptake units
radioactivity in entorhinal cortex (2 min, n = 1): 2.766 uptake units
radioactivity in hippocampus (2 min, n = 1): 2.864 uptake units
radioactivity in hypothalamus (2 min, n = 1): 3.397 uptake units
radioactivity in inferior colliculi (2 min, n = 1): 6.716 uptake units
radioactivity in occipital cortex (2 min, n = 1): 4.008 uptake units
radioactivity in olfactory tubercles (2 min, n = 1): 2.826 uptake units
radioactivity in plasma (shown for comparison) (2 min, n = 1): 0.264 uptake units
radioactivity in pons with medulla (2 min, n = 1): 3.678 uptake units
radioactivity in prefrontal cortex (2 min, n = 1): 3.808 uptake units
radioactivity in somatosensory cortex (2 min, n = 1): 3.531 uptake units
radioactivity in striata (2 min, n = 1): 2.306 uptake units
radioactivity in superior colliculi (2 min, n = 1): 4.977 uptake units
radioactivity in thalamus (2 min, n = 1): 4.460 uptake units
radioactivity in blood (5 min, n = 1): 0.261 uptake units
radioactivity in cerebellum (5 min, n = 1): 2.761 uptake units
radioactivity in entorhinal cortex (5 min, n = 1): 2.442 uptake units
radioactivity in hippocampus (5 min, n = 1): 2.250 uptake units
radioactivity in hypothalamus (5 min, n = 1): 2.443 uptake units
radioactivity in inferior colliculi (5 min, n = 1): 3.292 uptake units
radioactivity in occipital cortex (5 min, n = 1): 2.883 uptake units
radioactivity in olfactory tubercles (5 min, n = 1): 3.062 uptake units
radioactivity in plasma (shown for comparison) (5 min, n = 1): 0.135 uptake units
radioactivity in pons with medulla (5 min, n = 1): 2.877 uptake units
radioactivity in prefrontal cortex (5 min, n = 1): 3.099 uptake units
radioactivity in somatosensory cortex (5 min, n = 1): 2.772 uptake units
radioactivity in striata (5 min, n = 1): 1.817 uptake units
radioactivity in superior colliculi (5 min, n = 1): 3.541 uptake units
radioactivity in thalamus (5 min, n = 1): 2.566 uptake units
radioactivity in blood (10 min, n = 2): 0.146 uptake units
radioactivity in cerebellum (10 min, n = 2): 1.451 uptake units
radioactivity in entorhinal cortex (10 min, n = 2): 1.404 uptake units
radioactivity in hippocampus (10 min, n = 2): 1.396 uptake units
radioactivity in hypothalamus (10 min, n = 2): 1.275 uptake units
radioactivity in inferior colliculi (10 min, n = 2): 1.539 uptake units
radioactivity in occipital cortex (10 min, n = 2): 1.651 uptake units
radioactivity in olfactory tubercles (10 min, n = 2): 1.300 uptake units
radioactivity in plasma (shown for comparison) (10 min, n = 2): 0.102 uptake units
radioactivity in pons with medulla (10 min, n = 2): 1.530 uptake units
radioactivity in prefrontal cortex (10 min, n = 2): 1.649 uptake units
radioactivity in somatosensory cortex (10 min, n = 2): 1.588 uptake units
radioactivity in striata (10 min, n = 2): 1.433 uptake units
radioactivity in superior colliculi (10 min, n = 2): 1.677 uptake units
radioactivity in thalamus (10 min, n = 2): 1.353 uptake units
radioactivity in blood (30 min, n = 3, mean ± SD): 0.269 ± 0.042 uptake units
radioactivity in cerebellum (30 min, n = 3, mean ± SD): 0.919 ± 0.110 uptake units
radioactivity in entorhinal cortex (30 min, n = 3, mean ± SD): 0.941 ± 0.086 uptake units
radioactivity in hippocampus (30 min, n = 3, mean ± SD): 1.088 ± 0.142 uptake units
radioactivity in hypothalamus (30 min, n = 3, mean ± SD): 1.076 ± 0.250 uptake units
radioactivity in inferior colliculi (30 min, n = 3, mean ± SD): 0.841 ± 0.084 uptake units
radioactivity in occipital cortex (30 min, n = 3, mean ± SD): 1.041 ± 0.067 uptake units
radioactivity in olfactory tubercles (30 min, n = 3, mean ± SD): 0.981 ± 0.235 uptake units
radioactivity in plasma (shown for comparison) (30 min, n = 3, mean ± SD): 0.229 ± 0.047 uptake units
radioactivity in pons with medulla (30 min, n = 3, mean ± SD): 1.110 ± 0.129 uptake units
radioactivity in prefrontal cortex (30 min, n = 3, mean ± SD): 1.168 ± 0.042 uptake units
radioactivity in somatosensory cortex (30 min, n = 3, mean ± SD): 1.037 ± 0.103 uptake units
radioactivity in striata (30 min, n = 3, mean ± SD): 1.101 ± 0.202 uptake units
radioactivity in superior colliculi (30 min, n = 3, mean ± SD): 1.086 ± 0.286 uptake units
radioactivity in thalamus (30 min, n = 3, mean ± SD): 1.415 ± 0.203 uptake units
radioactivity in blood (60 min, n = 3, mean ± SD): 0.229 ± 0.068 uptake units
radioactivity in cerebellum (60 min, n = 3, mean ± SD): 0.454 ± 0.082 uptake units
radioactivity in entorhinal cortex (60 min, n = 3, mean ± SD): 0.502 ± 0.095 uptake units
radioactivity in hippocampus (60 min, n = 3, mean ± SD): 0.548 ± 0.119 uptake units
radioactivity in hypothalamus (60 min, n = 3, mean ± SD): 0.533 ± 0.115 uptake units
radioactivity in inferior colliculi (60 min, n = 3, mean ± SD): 0.456 ± 0.079 uptake units
radioactivity in occipital cortex (60 min, n = 3, mean ± SD): 0.541 ± 0.124 uptake units
radioactivity in olfactory tubercles (60 min, n = 3, mean ± SD): 0.504 ± 0.062 uptake units
radioactivity in plasma (shown for comparison) (60 min, n = 3, mean ± SD): 0.222 ± 0.055 uptake units
radioactivity in pons with medulla (60 min, n = 3, mean ± SD): 0.551 ± 0.143 uptake units
radioactivity in prefrontal cortex (60 min, n = 3, mean ± SD): 0.519 ± 0.105 uptake units
radioactivity in somatosensory cortex (60 min, n = 3, mean ± SD): 0.517 ± 0.107 uptake units
radioactivity in striata (60 min, n = 3, mean ± SD): 0.481 ± 0.136 uptake units
radioactivity in superior colliculi (60 min, n = 3, mean ± SD): 0.486 ± 0.101 uptake units
radioactivity in thalamus (60 min, n = 3, mean ± SD): 0.553 ± 0.108 uptake units
radioactivity in blood (90 min, n = 1): 0.180 uptake units
radioactivity in cerebellum (90 min, n = 1): 0.366 uptake units
radioactivity in entorhinal cortex (90 min, n = 1): 0.383 uptake units
radioactivity in hippocampus (90 min, n = 1): 0.391 uptake units
radioactivity in hypothalamus (90 min, n = 1): 0.466 uptake units
radioactivity in inferior colliculi (90 min, n = 1): 0.306 uptake units
radioactivity in occipital cortex (90 min, n = 1): 0.423 uptake units
radioactivity in olfactory tubercles (90 min, n = 1): 0.504 uptake units
radioactivity in plasma (shown for comparison) (90 min, n = 1): 0.163 uptake units
radioactivity in pons with medulla (90 min, n = 1): 0.406 uptake units
radioactivity in prefrontal cortex (90 min, n = 1): 0.414 uptake units
radioactivity in somatosensory cortex (90 min, n = 1): 0.376 uptake units
radioactivity in striata (90 min, n = 1): 0.485 uptake units
radioactivity in superior colliculi (90 min, n = 1): 0.386 uptake units
radioactivity in thalamus (90 min, n = 1): 0.551 uptake units
